We go through 4 molecules from publication PMC12434071, “Platinum-group metal half-sandwich complexes of 1-(α-D-glucopyranosyl)-4-hetaryl-1,2,3-triazoles: synthesis, solution equilibrium studies, and investigation of their anticancer and antimicrobial activities” (Frontiers in Chemistry, 2025).

One data set has as its system A2780 cells. Description: MTT reduction assay on A2780 cells. The class given is cell-based. To be noted: maximal inhibition; 4 h treatment; maximum concentration 100 µM. The procedure: For MTT assays, 4 × 10^3 A2780 cells were plated into 96-well plates, and for SRB assays, 1.5 × 10^3 A2780 cells were plated into 96-well plates. Cells were treated with the compounds in the concentrations indicated for either 4 h for an MTT assay or for 48 h for an SRB assay. Data are represented as average ± SD, from four biological replicates, with the exception of the MTT dataset of Ir-2b and the SRB datasets of 2b, Ru/Ir-2b, and Ir-3a, which were derived from three biological replicates. Individual assays were performed in duplicate. Values were normalized for vehicle-treated cells, and the absorbance for vehicle-treated cells equals 1. Data are represented as fold change compared to vehicle-treated controls. Normality was assessed using the D'Agostino-Pearson test. Statistical significance was assessed using a two-way ANOVA test followed by Tukey's post hoc test. For better visibility, normality, transformations, statistical tests, and p values are presented in an MS Excel sheet at https://figshare.com/s/3a0aa60b66f3f746f41e. Color code: black-free ligand (2a,b or 3a), khaki-ruthenium complex (Ru-2a,b or Ru-3a), green-iridium complex (Ir-2a,b or Ir-3a).  FIGURE 5 The ruthenium, osmium, and iridium complexes of ligands 4a, 4b, and 5a decrease MTT reduction. For MTT assays, 4 × 10^3 A2780 cells, 3 × 10^3 ID8 cells, or 6 × 10^3 human primary fibroblasts were plated into 96-well plates. Cells were treated with the compounds in the concentrations indicated for 4 h. Data are represented as average ± SD, from four biological replicates on A2780, and from three biological replicates on ID8 and human primary fibroblasts. For the datasets of 5a and Os-5a on human primary fibroblasts, the data represent four biological replicates. Individual assays were performed in duplicate. Values were normalized for vehicle-treated cells, and the absorbance for vehicle-treated cells equals 1. Normality was assessed using the D'Agostino-Pearson test. Statistical significance was assessed using a two-way ANOVA test followed by Tukey's post hoc test. For better visibility, normality, transformations, statistical tests, and p values are presented in an MS Excel sheet at https://figshare.com/s/3a0aa60b66f3f746f41e. Color code: black-free ligand (4a,b or 5a), khaki-ruthenium complex (Ru-4a,b), green-iridium complex (Ir-4a,b), blue-osmium complex (Os-4a,b or Os-5a), and red-rhodium complex (Rh-4a,b). An MTT reduction assay measures the activity of mitochondrial complex I and can be used to detect toxicity ([[…] et al., 2016]). The assay was performed in a manner similar to that described by [[…] et al. (2023b)]. Briefly, cells were plated into 96-well plates the day before the assay. Cells were treated with the compounds for 4 h; then, MTT was added to a 0.5 mg/mL final concentration, and cells were incubated at 37°C in a cell incubator for 40-60 min, as a function of the cell line being assessed. The culture medium was removed, the reduced MTT dye was dissolved in dimethylsulfoxide, and plates were measured in a plate photometer (Thermo Scientific Multiscan GO spectrophotometer, Waltham, MA, United States) at 540 nm. Certain wells were designated to contain vehicle-treated cells on each plate. In calculations, the readings for these wells were considered to 1, and all readings were expressed relative to these values. Statistical analysis was performed using version 8.0.1 of GraphPad Prism. Values were tested for normal distribution using the D'Agostino-Pearson or Shapiro-Wilk normality tests. When necessary, values were log-normalized or normalized using the Box-Cox or two-step normalization method ([Box and Cox, 1964]), as indicated in the MS Excel file listing the values at https://figshare.com/s/3a0aa60b66f3f746f41e. The following statistical test, post hoc test, and the level of significance are indicated in the MS Excel file listing the values at https://figshare.com/s/3a0aa60b66f3f746f41e. […]
In general terms: Tetrazolium dyes change colour on reduction, which living cells bring about.

A short description of data set [1]: pH-potentiometric titration, protonation constants (pKa) of the ligands. Format: physicochemical. To be noted: 0.20 M KCl, 25.0°C; N-heterocyclic ring of the ligand. The procedure:
In order to obtain information on the acidbase character of the ligands and on the stoichiometry and stability of the complexes present in aqueous medium, potentiometric titrations were carried out in selected systems. Based on the results, both 3a and 3b, having good enough solubility in water, are capable of releasing one hydrogen ion from the fully protonated forms in the measurable pH range (see Figure 3, “pK”). The calculated pK a values appear in Table 4; these values belong to the N-heterocyclic ring of the ligands. […]. For comparison, the previously prepared β-anomeric pair of 3a, compound 3a-β ([Kacsir et al., 2021]) in Table 4, was also studied.
For solution studies, doubly deionized and ultra-filtered water was obtained from a Milli-Q RG (Millipore) water purification system. pH-potentiometric measurements were carried out at a constant ionic strength of 0.20 M KCl and at 25.0°C. Carbonate-free KOH solutions of known concentrations (ca. 0.2 M) were used as titrant. […]. A Mettler Toledo DL50 titrator equipped with a DG114-SC combined glass electrode was used for the pH-potentiometric measurements. […] The titrations were performed in the pH range of 2.0–11.0 in equilibrium-controlled mode, during which the pH equilibrium was assumed to be reached if a change in the measured potential was less than 0.1 mV within 90 s. […]

Data set [2] in a line: pH-potentiometric titration, stability constants (logβ) of ML complexes. Format: physicochemical. To be noted: [(η^5-Cp*)Rh]^2+; 0.20 M KCl, 25.0°C. From the text:
[…]. […] Comparing the two metal ion containing systems, the complexation with [(η^6-p-cym)Ru]^2+, starts at a more acidic pH, but hydrolytic processes occur already in the physiological pH range due to the higher affinity of the metal ion to hydrolysis. For the [(η^5-Cp*)Rh]^2+, these processes are shifted towards higher pH; […].
For solution studies, doubly deionized and ultra-filtered water was obtained from a Milli-Q RG (Millipore) water purification system. pH-potentiometric measurements were carried out at a constant ionic strength of 0.20 M KCl and at 25.0°C. Carbonate-free KOH solutions of known concentrations (ca. 0.2 M) were used as titrant. […]. A Mettler Toledo DL50 titrator equipped with a DG114-SC combined glass electrode was used for the pH-potentiometric measurements. […] The titrations were performed in the pH range of 2.0–11.0 in equilibrium-controlled mode, during which the pH equilibrium was assumed to be reached if a change in the measured potential was less than 0.1 mV within 90 s. […] The protonation constants of the ligands and the overall stability constants of the complexes, βp,q,r = [MpHqLr]/[M]^p[H]^q[L]^r (where “M” stands for [(η^5-Cp*)Rh(H2O)3]^2+ and “L” represents the completely deprotonated form of the ligand), were calculated with the aid of the SUPERQUAD ([Gans et al., 1985]) and PSEQUAD ([Zékány and Nagypál, 1985]) computer programs, respectively. […]

SMILES strings stand for the structures.

Consider `O=C(OC[C@H]1O[C@H](n2cc(-c3ccccn3)nn2)[C@H](OC(=O)c2ccccc2)[C@@H](OC(=O)c2ccccc2)[C@@H]1OC(=O)c1ccccc1)c1ccccc1` [Complex 4a, 1-(2’,3’,4’,6’-Tetra-O-benzoyl-α-D-glucopyranosyl)-4-(pyridin-2-yl)-1,2,3-triazole], for which the “A2780 MTT max %” value with A2780 cells was found to be 0%.

On to `OC[C@H]1O[C@H](n2cc(-c3ccccn3)nn2)[C@H](O)[C@@H](O)[C@@H]1O` [Complex 3a, 1-(α-D-Glucopyranosyl)-4-(pyridin-2-yl)-1,2,3-triazole], for which, in data set [1], the pK a was 3.59 (1). The “logβ [ML]” value in data set [2] is given as 5.50 (4). Also, the “A2780 MTT max %” value with A2780 cells came out at 0%.

For the molecule `O=C(OC[C@H]1O[C@H](n2cc(-c3ccc4ccccc4n3)nn2)[C@H](OC(=O)c2ccccc2)[C@@H](OC(=O)c2ccccc2)[C@@H]1OC(=O)c1ccccc1)c1ccccc1` [Complex 4b, 1-(2’,3’,4’,6’-Tetra-O-benzoyl-α-D-glucopyranosyl)-4-(quinolin-2-yl)-1,2,3-triazole], the “A2780 MTT max %” value in the data set on A2780 cells turned out to be 0%.

As to `CCCCC(=O)OC[C@H]1O[C@H](n2cc(-c3ccccn3)nn2)[C@H](OC(=O)CCCC)[C@@H](OC(=O)CCCC)[C@@H]1OC(=O)CCCC` [Complex 5a, 1-(2’,3’,4’,6’-Tetra-O-pentanoyl-α-D-glucopyranosyl)-4-(pyridin-2-yl)-1,2,3-triazole], the “A2780 MTT max %” value in the data set on A2780 cells is recorded as 0%.
